Experimental data published in patent publication US8653278B2, “Isoform selective HDAC inhibitors” (Georgetown University, priority 2006, dated 2014).
Entries after “also recorded” stand apart in the source; their conditions may differ. Like-named read-outs stand apart in the source and are kept apart here.

Legend:
HDAC [1] = test system: T1, HDAC; assay: in vitro HDAC inhibitory activity, HDAC Fluor-Lys as substrate (BIOMOL); format: biochemical; conditions: for IC50: read-out: IC50, concentration required to achieve 50% inhibition of HDAC activity
T1 construct: other: HDAC Fluor-Lys substrate; other: at concentrations of 1 μM
Method: The in vitro HDAC inhibitory activity of the synthesized compounds was determined by using HDAC Fluor-Lys as the substrate (BIOMOL). […] SAHA was used as a positive control.

[2] = test system: human normal fibroblasts (NHP-5); assay: growth inhibition of normal cells NHP-5; format: cell-based; conditions: Fibroblast
Method: (§1) One of characteristics of the HDAC inhibitors relates to their ability to inhibit the growth of transformed cells. The compounds capable of modifying histones in the cell were tested for their biological effects.

[3] = test system: human normal primary skin fibroblasts (Hs-68); assay: growth inhibition of normal cells Hs-68; format: cell-based; conditions: Hs68
Method: as §1

[4] = test system: prostate cancer (PC-3), breast cancer (MCF-7), cervical cancer (HeLa), squamous carcinoma (SQ-20B); assay: antiproliferative activity in cancer cell lines; format: cell-based; conditions: PC-3, MCF-7, HeLa
Method: as §1

[5] = test system: mouse model of Huntington's disease; conditions: cited from earlier work
Plasmodium falciparum = conditions: human malaria parasite Plasmodium falciparum; cited from earlier work
HDAC1 = molecular target: T2, HDAC1 (Homo sapiens, UniProt Q13547); assay: class I HDAC isoform activity, immunoprecipitate from HeLa nuclear extracts; format: biochemical; conditions: 0.5 μM of the test compound
T2 construct: endogenous in cells; host or cells: HeLa nuclear extract, immunoprecipitate
Description: (§2) FIG. 10 depicts the effect of HDAC inhibitors, including selected compounds of the invention, on Class I HDAC isoform activities. Note that (a) denotes that HeLa nuclear extracts were used for immunoprecipitation (IP) with antibodies against HDAC 1-3; and (b) denotes that recombinant protein was used for HDAC 8. Note: TSA is trichostatin A.
(§3) To test whether the modified CAP region of the HDACIs is able to target specific HDAC isoform enzyme activity, the compounds were examined for class I HDAC isoform inhibitory activities using recombinant HDAC8 and immunoprecipitates of the other HDAC isoforms (HDAC 1, 2, 3) using nuclear extracts from HeLa cells. […] The data shown in FIG. 10 represent the HDAC inhibitory activity remaining after addition of 0.5 μM of the test compounds.

HDAC2 = molecular target: T3, HDAC2 (Homo sapiens, UniProt Q92769); assay: as above; format: biochemical; conditions: 0.5 μM of the test compound
T3 construct: endogenous in cells; host or cells: HeLa nuclear extract, immunoprecipitate
Description: as §2, §3

HDAC3 = molecular target: T4, HDAC3 (Homo sapiens, UniProt O15379); assay: as above; format: biochemical; conditions: after addition of 0.5 μM of the test compound
T4 construct: endogenous in cells; host or cells: HeLa nuclear extract, immunoprecipitate
Description: as §2, §3

HDAC8 = molecular target: T5, HDAC8 (Homo sapiens, UniProt Q9BY41); assay: class I HDAC isoform activity, recombinant protein; format: biochemical; conditions: after addition of 0.5 μM of the test compound
T5 sequence (Q9BY41 1-377): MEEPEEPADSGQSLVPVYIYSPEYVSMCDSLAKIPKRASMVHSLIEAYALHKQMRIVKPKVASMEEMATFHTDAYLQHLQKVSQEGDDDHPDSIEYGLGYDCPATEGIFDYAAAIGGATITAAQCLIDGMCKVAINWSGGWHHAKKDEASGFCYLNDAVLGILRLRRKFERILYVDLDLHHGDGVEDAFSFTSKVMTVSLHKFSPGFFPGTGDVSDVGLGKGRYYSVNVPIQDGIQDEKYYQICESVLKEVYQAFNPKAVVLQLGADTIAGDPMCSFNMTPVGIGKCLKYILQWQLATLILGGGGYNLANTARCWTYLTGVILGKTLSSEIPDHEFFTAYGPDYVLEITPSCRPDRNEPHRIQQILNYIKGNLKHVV
Description: as §2, §3

HDAC 1, 2, 3 and HDAC8 = assay: class I HDAC isoform panel, comparison across isoforms; format: biochemical; conditions: 0.5 μM of the test compound; HDAC 1, 2, 3, 8
Description: as §2, with “8.” for “8. Note: TSA is trichostatin A.”

HDAC [6] = conditions: read-out: reported IC50; literature value; cited from earlier work

T3 sequence (Q92769 whole entry): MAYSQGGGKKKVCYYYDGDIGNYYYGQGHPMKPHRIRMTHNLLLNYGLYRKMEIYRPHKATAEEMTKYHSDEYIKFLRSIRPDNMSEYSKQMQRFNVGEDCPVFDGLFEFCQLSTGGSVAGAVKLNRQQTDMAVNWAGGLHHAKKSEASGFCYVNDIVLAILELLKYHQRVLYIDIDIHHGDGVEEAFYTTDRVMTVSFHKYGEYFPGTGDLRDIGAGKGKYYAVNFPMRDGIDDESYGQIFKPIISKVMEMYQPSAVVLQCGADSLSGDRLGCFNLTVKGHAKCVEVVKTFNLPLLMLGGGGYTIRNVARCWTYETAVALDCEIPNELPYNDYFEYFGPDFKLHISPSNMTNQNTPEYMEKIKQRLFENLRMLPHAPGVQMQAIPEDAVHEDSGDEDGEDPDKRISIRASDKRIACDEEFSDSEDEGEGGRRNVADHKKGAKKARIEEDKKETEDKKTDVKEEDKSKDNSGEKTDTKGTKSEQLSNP
T4 sequence (O15379 whole entry): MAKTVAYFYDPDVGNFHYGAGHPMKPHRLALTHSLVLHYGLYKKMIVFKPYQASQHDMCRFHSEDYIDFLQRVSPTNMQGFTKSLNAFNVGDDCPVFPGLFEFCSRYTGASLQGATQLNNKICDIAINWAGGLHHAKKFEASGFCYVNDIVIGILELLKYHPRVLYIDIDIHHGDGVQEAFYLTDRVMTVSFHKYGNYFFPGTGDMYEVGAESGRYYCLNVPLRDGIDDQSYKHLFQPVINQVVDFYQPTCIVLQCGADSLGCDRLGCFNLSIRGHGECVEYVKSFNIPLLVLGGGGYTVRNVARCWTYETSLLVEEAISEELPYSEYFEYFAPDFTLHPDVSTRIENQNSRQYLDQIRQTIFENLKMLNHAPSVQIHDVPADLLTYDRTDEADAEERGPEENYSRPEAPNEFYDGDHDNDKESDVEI
T4 sequence (Q9Y618 whole entry partner): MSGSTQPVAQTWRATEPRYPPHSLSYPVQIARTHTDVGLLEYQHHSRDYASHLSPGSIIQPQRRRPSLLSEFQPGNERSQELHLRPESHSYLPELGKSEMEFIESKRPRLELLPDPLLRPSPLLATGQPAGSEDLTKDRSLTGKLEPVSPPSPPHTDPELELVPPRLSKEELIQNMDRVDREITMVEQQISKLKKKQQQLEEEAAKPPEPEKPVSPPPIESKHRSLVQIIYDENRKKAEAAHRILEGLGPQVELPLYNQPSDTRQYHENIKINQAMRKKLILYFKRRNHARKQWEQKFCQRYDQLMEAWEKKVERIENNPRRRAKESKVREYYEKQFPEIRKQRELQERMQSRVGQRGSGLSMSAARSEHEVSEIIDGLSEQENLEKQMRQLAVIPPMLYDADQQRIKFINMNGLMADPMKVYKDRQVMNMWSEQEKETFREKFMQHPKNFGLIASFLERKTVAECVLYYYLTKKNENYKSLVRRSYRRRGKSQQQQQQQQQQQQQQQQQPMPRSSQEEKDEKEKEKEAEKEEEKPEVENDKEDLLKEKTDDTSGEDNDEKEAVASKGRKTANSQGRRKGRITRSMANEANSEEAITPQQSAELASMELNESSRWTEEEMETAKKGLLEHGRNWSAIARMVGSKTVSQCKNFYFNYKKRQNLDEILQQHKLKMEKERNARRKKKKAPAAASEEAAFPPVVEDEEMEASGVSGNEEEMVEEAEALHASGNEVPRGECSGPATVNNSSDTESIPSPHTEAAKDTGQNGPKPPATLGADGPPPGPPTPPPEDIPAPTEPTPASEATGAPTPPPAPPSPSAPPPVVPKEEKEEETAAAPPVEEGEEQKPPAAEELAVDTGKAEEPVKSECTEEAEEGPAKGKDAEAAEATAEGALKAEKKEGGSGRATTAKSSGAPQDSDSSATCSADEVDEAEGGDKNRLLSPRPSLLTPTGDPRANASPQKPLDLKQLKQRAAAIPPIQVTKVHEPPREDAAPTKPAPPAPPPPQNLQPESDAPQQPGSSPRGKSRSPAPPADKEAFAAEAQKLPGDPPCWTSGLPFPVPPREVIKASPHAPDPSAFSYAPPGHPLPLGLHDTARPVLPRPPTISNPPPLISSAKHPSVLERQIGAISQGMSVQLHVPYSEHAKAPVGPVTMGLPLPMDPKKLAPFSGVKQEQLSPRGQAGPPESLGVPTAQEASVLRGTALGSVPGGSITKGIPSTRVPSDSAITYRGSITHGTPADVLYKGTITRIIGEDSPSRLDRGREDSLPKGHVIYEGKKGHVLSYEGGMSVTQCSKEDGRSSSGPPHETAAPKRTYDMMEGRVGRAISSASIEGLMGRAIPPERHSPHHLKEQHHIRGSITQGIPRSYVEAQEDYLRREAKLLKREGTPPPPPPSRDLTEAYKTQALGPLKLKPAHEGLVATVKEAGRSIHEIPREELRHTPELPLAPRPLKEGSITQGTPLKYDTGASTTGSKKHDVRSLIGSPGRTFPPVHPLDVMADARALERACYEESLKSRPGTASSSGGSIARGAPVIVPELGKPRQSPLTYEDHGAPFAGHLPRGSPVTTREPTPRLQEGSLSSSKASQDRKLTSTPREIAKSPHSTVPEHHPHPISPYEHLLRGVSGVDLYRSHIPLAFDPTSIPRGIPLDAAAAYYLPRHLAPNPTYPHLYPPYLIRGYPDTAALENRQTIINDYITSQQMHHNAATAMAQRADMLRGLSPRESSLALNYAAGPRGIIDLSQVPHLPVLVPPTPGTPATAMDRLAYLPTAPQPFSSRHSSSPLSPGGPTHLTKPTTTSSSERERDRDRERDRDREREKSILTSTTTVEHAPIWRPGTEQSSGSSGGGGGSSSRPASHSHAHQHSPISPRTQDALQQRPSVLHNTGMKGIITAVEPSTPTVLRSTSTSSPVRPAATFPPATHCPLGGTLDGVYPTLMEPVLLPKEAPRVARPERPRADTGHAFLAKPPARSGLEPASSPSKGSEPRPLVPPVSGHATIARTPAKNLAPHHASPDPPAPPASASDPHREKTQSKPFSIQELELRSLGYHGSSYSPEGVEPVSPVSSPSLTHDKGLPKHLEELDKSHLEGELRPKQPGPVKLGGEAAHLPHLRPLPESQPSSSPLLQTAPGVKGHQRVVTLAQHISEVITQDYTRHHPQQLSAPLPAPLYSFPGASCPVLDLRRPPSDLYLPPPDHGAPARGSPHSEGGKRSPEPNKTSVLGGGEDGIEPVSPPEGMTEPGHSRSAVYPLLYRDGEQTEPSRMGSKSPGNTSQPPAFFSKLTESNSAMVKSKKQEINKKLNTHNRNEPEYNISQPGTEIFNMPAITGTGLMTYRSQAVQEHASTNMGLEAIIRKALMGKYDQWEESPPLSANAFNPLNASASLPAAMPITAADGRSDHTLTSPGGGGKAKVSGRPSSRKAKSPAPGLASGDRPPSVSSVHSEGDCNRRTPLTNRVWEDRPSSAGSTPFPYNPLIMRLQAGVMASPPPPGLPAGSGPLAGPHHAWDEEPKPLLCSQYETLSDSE
T2 sequence (Q13547 whole entry, canonical isoform): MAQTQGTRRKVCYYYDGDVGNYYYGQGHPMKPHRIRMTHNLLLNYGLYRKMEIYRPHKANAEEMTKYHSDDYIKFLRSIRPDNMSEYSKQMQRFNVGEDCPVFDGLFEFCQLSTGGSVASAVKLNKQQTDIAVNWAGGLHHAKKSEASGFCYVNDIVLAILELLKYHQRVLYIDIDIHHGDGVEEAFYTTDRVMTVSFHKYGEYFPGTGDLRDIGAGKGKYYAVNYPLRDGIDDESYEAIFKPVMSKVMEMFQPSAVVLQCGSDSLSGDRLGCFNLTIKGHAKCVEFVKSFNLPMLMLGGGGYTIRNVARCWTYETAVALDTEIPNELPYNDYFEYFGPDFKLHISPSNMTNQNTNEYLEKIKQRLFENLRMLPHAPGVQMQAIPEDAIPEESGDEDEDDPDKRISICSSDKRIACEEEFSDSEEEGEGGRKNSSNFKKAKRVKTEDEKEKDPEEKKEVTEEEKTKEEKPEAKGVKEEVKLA

NCC(=O)Nc1ccccc1-c1ccc(NC(=O)CCCCCCC(=O)NO)cc1 [7a, octanedioic acid [2′-(2-amino-acetylamino)-biphenyl-4-yl]-amide hydroxyamide]
IC50 (HDAC [1]; HDAC Fluor-Lys substrate): 200 nM
IC50 [2]: > 500000 nM
IC50 [3]: > 500000 nM

NC(Cc1ccccc1)C(=O)Nc1ccccc1-c1ccc(NC(=O)CCCCCCC(=O)NO)cc1 (stereo not drawn) [7b, octanedioic acid [2′-(2-amino-3-phenyl-propionylamino)-biphenyl-4-yl]-amide hydroxyamide]
HDAC inhibitory activity (in words) (HDAC [1]): approximately equipotent in their activity to SAHA
antiproliferative / growth inhibitory activity (in words) [4]: good growth inhibitory activity
IC50 [2]: 80000 nM
IC50 [3]: > 300000 nM

O=C(CCCCCCC(=O)Nc1ccc(-c2ccccc2NC(=O)C2CCCN2)cc1)NO (stereo not drawn) [7c, octanedioic acid hydroxyamide {2′-[(pyrrolidine-2-carbonyl)-amino]-biphenyl-4-yl}-amide]
HDAC inhibitory activity (in words) (HDAC [1]; HDAC Fluor-Lys substrate): approximately equipotent in their activity to SAHA

NC(Cc1c[nH]c2ccccc12)C(=O)Nc1ccccc1-c1ccc(NC(=O)CCCCCCC(=O)NO)cc1 (stereo not drawn) [7d, octanedioic acid {2′-[2-amino-3-(1H-indol-3-yl)-propionylamino]-biphenyl-4-yl}-amide hydroxyamide]
IC50 (HDAC [1]): 30 nM
IC50 [2]: 100000 nM

NC(Cc1ccc(O)cc1)C(=O)Nc1ccccc1-c1ccc(NC(=O)CCCCCCC(=O)NO)cc1 (stereo not drawn) [7e, octanedioic acid {2′-[2-amino-3-(4-hydroxy-phenyl)-propionylamino]-biphenyl-4-yl}-amide hydroxyamide]
IC50 (HDAC [1]; HDAC Fluor-Lys substrate): 50 nM

NCC(=O)Nc1ccccc1-c1ccc(NC(=O)CCCCCNC(=O)CS)cc1 [10a, 6-(2-mercapto-acetylamino)-hexanoic acid [2′-(2-amino-acetylamino)-biphenyl-4-yl]-amide]
IC50 (HDAC [1]): 7000 nM

NC(Cc1ccccc1)C(=O)Nc1ccccc1-c1ccc(NC(=O)CCCCCNC(=O)CS)cc1 (stereo not drawn) [10b, 6-(2-Mercapto-acetylamino)-hexanoic acid [2′-(2-amino-3-phenyl-propionylamino)-biphenyl-4-yl]-amide]
IC50 (HDAC [1]): 3000 nM

NC(Cc1c[nH]c2ccccc12)C(=O)Nc1ccccc1-c1ccc(NC(=O)CCCCCNC(=O)CS)cc1 (stereo not drawn) [10d, 6-(2-mercapto-acetylamino)-hexanoic acid {2′-[2-amino-3-(1H-indol-3-yl)-propionylamino]-biphenyl-4-yl}-amide]
HDAC inhibitory activity at a fixed concentration (in words) (HDAC [1]): inactive

NC(Cc1ccc(O)cc1)C(=O)Nc1ccccc1-c1ccc(NC(=O)CCCCCNC(=O)CS)cc1 (stereo not drawn) [10e, 6-(2-mercapto-acetylamino)-hexanoic acid {2′-[2-amino-3-(4-hydroxy-phenyl)-propionylamino]-biphenyl-4-yl}-amide]
HDAC inhibitory activity at a fixed concentration (in words) (HDAC [1]; at concentrations of 1 μM): inactive

O=C(CCCCCCC(=O)Nc1ccccc1)NO [SAHA, suberoylanilide hydroxamic acid]
motor impairment ([5]; mouse model of Huntington's disease): improve dramatically the motor impairment
brain penetration ([5]; mouse, in vivo): penetrate into the brain

COc1ccc(CCN(C)CCCC(C#N)(c2ccc(OC)c(OC)c2)C(C)C)cc1OC (stereo not drawn) [Verapamil]
reversal of chloroquine resistance (Plasmodium falciparum): reverse chloroquine resistance

Nc1ccccc1-c1csc(NC(=O)CCCCCCC(=O)NO)n1 [compound 16, octanedioic acid hydroxyamide [4-(2-amino-phenyl)-thiazol-2-yl]-amide]
HDAC inhibitory activity (in words) (HDAC [1]; HDAC Fluor-Lys substrate): poorly active

O=C(CCCCCCC(=O)Nc1nc(-c2ccccc2[N+](=O)[O-])cs1)NO [compound 17, octanedioic acid hydroxyamide [4-(2-nitro-phenyl)-thiazol-2-yl]-amide]
IC50 (HDAC [1]; HDAC Fluor-Lys substrate): 50 nM

O=C(CCCCCCC(=O)Nc1nc(-c2cccc([N+](=O)[O-])c2)cs1)NO [compound 19, octanedioic acid hydroxyamide [4-(3-Nitro-phenyl)-thiazol-2-yl]-amide]
antiproliferative / growth inhibitory activity (in words) [4]: submicromolar activity
inhibition of HDAC1 activity (in words) (HDAC1): strong tendency to inhibit
inhibition of HDAC2 activity (in words) (HDAC2): strong tendency to inhibit
remaining activity at 0.5 µM (HDAC3): > 30%
remaining activity at 0.5 µM (HDAC8): > 30%

CCOC(=O)Nc1cccc(-c2csc(NC(=O)CCCCCCC(=O)NO)n2)c1 [compound 22, {3-[2-(7-hydroxycarbamoyl-heptanoylamino)-thiazol-4-yl]-phenyl}-carbamic acid ethyl ester]
IC50 (HDAC [1]; HDAC Fluor-Lys substrate): 5 nM
potency relative to trichostatin A (HDAC [1]; IC50 compared with reported IC50 of trichostatin A): approximately two-fold
antiproliferative / growth inhibitory activity (in words) [4]: submicromolar activity; also recorded: impressive antiproliferative activity

Nc1cccc(-c2csc(NC(=O)CCCCCCC(=O)NO)n2)c1 [compound 23, octanedioic acid hydroxyamide [4-(3-amino-phenyl)-thiazol-2-yl]-amide]
IC50 (HDAC [1]; HDAC Fluor-Lys substrate): 8 nM
antiproliferative / growth inhibitory activity (in words) [4]: submicromolar activity
inhibition of HDAC1 activity (in words) (HDAC1): strong tendency to inhibit
inhibition of HDAC2 activity (in words) (HDAC2): strong tendency to inhibit
remaining activity at 0.5 µM (HDAC3): > 30%
remaining activity at 0.5 µM (HDAC8): > 30%

trichostatin A
class I HDAC isoform inhibitory activity and selectivity (in words) (HDAC 1, 2, 3 and HDAC8): more effective for inhibiting HDACs 1 and 2
IC50 (HDAC [6]): 12 nM
